Experimental data reported in PubChem BioAssay AID2060505 (Molecular Pharmacology Branch, DTP, NCI, 2025).

Tested on: 633275-114-R-J1-PDC complex spheroids, viability
Test: Anticancer human tumor 633275-114-R-J1-PDC patient-derived endometrial adenocarcinoma cell line growth inhibition [GQUAD]
Conditions: for IC50: curve of first compound; for viability, T/C: stronger effect = lower value
In short: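 Multi-cell-type spheroids of tumor cells with HUVEC and mesenchymal stem cells, treated with drug combinations. Concentrations descend in half-log steps from near clinical Cmax, or from 10 microM where Cmax is unknown; viability read-out.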

[1] = second compound 0.0316 µM, first compound 0.0316 µM
[2] = second compound 0.0316 µM, first compound 0.1 µM
[3] = second compound 0.0316 µM, first compound 0.316 µM
[4] = second compound 0.0316 µM, first compound 1 µM
[5] = second compound 0.0316 µM, first compound 3.16 µM
[6] = second compound 0.0316 µM, first compound 10 µM
[7] = second compound 0.1 µM, first compound 0.0316 µM
[8] = second compound 0.1 µM, first compound 0.1 µM
[9] = second compound 0.1 µM, first compound 0.316 µM
[10] = second compound 0.1 µM, first compound 1 µM
[11] = second compound 0.1 µM, first compound 3.16 µM
[12] = second compound 0.1 µM, first compound 10 µM
[13] = second compound 0.316 µM, first compound 0.0316 µM
[14] = second compound 0.316 µM, first compound 0.1 µM
[15] = second compound 0.316 µM, first compound 0.316 µM
[16] = second compound 0.316 µM, first compound 1 µM
[17] = second compound 0.316 µM, first compound 3.16 µM
[18] = second compound 0.316 µM, first compound 10 µM
[19] = second compound 1 µM, first compound 0.0316 µM
[20] = second compound 1 µM, first compound 0.1 µM
[21] = second compound 1 µM, first compound 0.316 µM
[22] = second compound 1 µM, first compound 1 µM
[23] = second compound 1 µM, first compound 3.16 µM
[24] = second compound 1 µM, first compound 10 µM
[25] = second compound 3.16 µM, first compound 0.0316 µM
[26] = second compound 3.16 µM, first compound 0.1 µM
[27] = second compound 3.16 µM, first compound 0.316 µM
[28] = second compound 3.16 µM, first compound 1 µM
[29] = second compound 3.16 µM, first compound 3.16 µM
[30] = second compound 3.16 µM, first compound 10 µM
[31] = second compound 10 µM, first compound 0.0316 µM
[32] = second compound 10 µM, first compound 0.1 µM
[33] = second compound 10 µM, first compound 0.316 µM
[34] = second compound 10 µM, first compound 1 µM
[35] = second compound 10 µM, first compound 3.16 µM
[36] = second compound 10 µM, first compound 10 µM
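Further: spheroids exposed to the agents for seven days.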
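Wherever viability, T/C is given: percent of DMSO vehicle control viability which is 100%.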

Question: Which IC50 (second compound 0.0316 µM) does the source give for `C#Cc1c(F)ccc2cc(O)cc(-c3ncc4c(N5CC6CCC(C5)N6)nc(OCC56CCCN5CC(F)C6)nc4c3F)c12` (stereo unspecified) + Cc1[nH]c2ccc(F)cc2c1-c1nc2c3cccnc3c3ncccc3c2[nH]1 here?
Answer: > 10 µM

Question: What about the IC50 (second compound 0.1 µM) of the same compound?
Answer: > 10 µM

Question: And the IC50 (second compound 0.316 µM)?
Answer: > 10 µM

Question: What about the IC50 (second compound 1 µM) of the same compound?
Answer: > 10 µM

Question: And the IC50 (second compound 3.16 µM)?
Answer: 4.83 µM

Question: And the IC50 (second compound 10 µM)?
Answer: 4.06 µM

Question: What about the viability, T/C [1] of the same compound?
Answer: 103%

Question: What about the viability, T/C [2] of the same compound?
Answer: 89.9%

Question: And the viability, T/C [3]?
Answer: 93.8%

Question: And the viability, T/C [4]?
Answer: 81.1%

Question: And the viability, T/C [5]?
Answer: 75.7%

Question: What about the viability, T/C [6] of the same compound?
Answer: 60.6%

Question: What about the viability, T/C [7] of the same compound?
Answer: 89.7%

Question: What about the viability, T/C [8] of the same compound?
Answer: 107%

Question: What about the viability, T/C [9] of the same compound?
Answer: 83.7%

Question: What about the viability, T/C [10] of the same compound?
Answer: 88.4%

Question: What about the viability, T/C [11] of the same compound?
Answer: 69.8%

Question: And the viability, T/C [12]?
Answer: 64%

Question: And the viability, T/C [13]?
Answer: 89.3%

Question: And the viability, T/C [14]?
Answer: 86.7%

Question: And the viability, T/C [15]?
Answer: 82.7%

Question: And the viability, T/C [16]?
Answer: 81.1%

Question: What about the viability, T/C [17] of the same compound?
Answer: 77.5%

Question: And the viability, T/C [18]?
Answer: 60.6%

Question: What about the viability, T/C [19] of the same compound?
Answer: 78.8%

Question: What about the viability, T/C [20] of the same compound?
Answer: 82%

Question: And the viability, T/C [21]?
Answer: 82.5%

Question: And the viability, T/C [22]?
Answer: 74.6%

Question: And the viability, T/C [23]?
Answer: 71.5%

Question: And the viability, T/C [24]?
Answer: 56.6%

Question: And the viability, T/C [25]?
Answer: 63.5%

Question: What about the viability, T/C [26] of the same compound?
Answer: 66.1%

Question: And the viability, T/C [27]?
Answer: 65.7%

Question: And the viability, T/C [28]?
Answer: 66.2%

Question: What about the viability, T/C [29] of the same compound?
Answer: 52%

Question: What about the viability, T/C [30] of the same compound?
Answer: 41.1%

Question: What about the viability, T/C [31] of the same compound?
Answer: 58%

Question: And the viability, T/C [32]?
Answer: 60.7%

Question: And the viability, T/C [33]?
Answer: 60.7%

Question: What about the viability, T/C [34] of the same compound?
Answer: 62.4%

Question: And the viability, T/C [35]?
Answer: 52.8%

Question: And the viability, T/C [36]?
Answer: 34.7%

Question: Which IC50 (second compound 0.0316 µM) does the source give for `COc1ncnc(C2CC2)c1-c1ncc2cnn(Cc3ccc(-c4nc(C(F)(F)F)cn4C(C)C)cc3)c2n1` + CN(C)c1ccc(Nc2c3ccc(NC(=O)CCN4CCCC4)cc3nc3cc(NC(=O)CCN4CCCC4)ccc23)cc1 here?
Answer: > 10 µM

Question: And the IC50 (second compound 0.1 µM)?
Answer: > 10 µM

Question: And the IC50 (second compound 0.316 µM)?
Answer: > 10 µM

Question: And the IC50 (second compound 1 µM)?
Answer: > 10 µM

Question: What about the IC50 (second compound 3.16 µM) of the same compound?
Answer: > 10 µM

Question: What about the IC50 (second compound 10 µM) of the same compound?
Answer: < 0.0316 µM

Question: And the viability, T/C [1]?
Answer: 102%

Question: And the viability, T/C [2]?
Answer: 102%

Question: And the viability, T/C [3]?
Answer: 84.5%

Question: And the viability, T/C [4]?
Answer: 101%

Question: What about the viability, T/C [5] of the same compound?
Answer: 102%

Question: And the viability, T/C [6]?
Answer: 95.4%

Question: And the viability, T/C [7]?
Answer: 101%

Question: What about the viability, T/C [8] of the same compound?
Answer: 90.8%

Question: What about the viability, T/C [9] of the same compound?
Answer: 88.4%

Question: What about the viability, T/C [10] of the same compound?
Answer: 99%

Question: And the viability, T/C [11]?
Answer: 93.3%

Question: And the viability, T/C [12]?
Answer: 87.3%

Question: What about the viability, T/C [13] of the same compound?
Answer: 86.8%

Question: What about the viability, T/C [14] of the same compound?
Answer: 103%

Question: What about the viability, T/C [15] of the same compound?
Answer: 86.8%

Question: What about the viability, T/C [16] of the same compound?
Answer: 94.5%

Question: What about the viability, T/C [17] of the same compound?
Answer: 97.2%

Question: And the viability, T/C [18]?
Answer: 94%

Question: What about the viability, T/C [19] of the same compound?
Answer: 89.3%

Question: What about the viability, T/C [20] of the same compound?
Answer: 97.9%

Question: What about the viability, T/C [21] of the same compound?
Answer: 92.6%

Question: And the viability, T/C [22]?
Answer: 69.2%

Question: What about the viability, T/C [23] of the same compound?
Answer: 96.6%

Question: And the viability, T/C [24]?
Answer: 92.3%

Question: What about the viability, T/C [25] of the same compound?
Answer: 79.8%

Question: What about the viability, T/C [26] of the same compound?
Answer: 81.7%

Question: And the viability, T/C [27]?
Answer: 81.2%

Question: What about the viability, T/C [28] of the same compound?
Answer: 76.1%

Question: And the viability, T/C [29]?
Answer: 84.4%

Question: And the viability, T/C [30]?
Answer: 67.8%

Question: What about the viability, T/C [31] of the same compound?
Answer: 32.7%

Question: And the viability, T/C [32]?
Answer: 30.2%

Question: What about the viability, T/C [33] of the same compound?
Answer: 31.1%

Question: What about the viability, T/C [34] of the same compound?
Answer: 27.2%

Question: What about the viability, T/C [35] of the same compound?
Answer: 26.6%

Question: What about the viability, T/C [36] of the same compound?
Answer: 12.8%

Question: What does the source list for `C=CCn1c(=O)c2cnc(Nc3ccc(N4CCN(C)CC4)cc3)nc2n1-c1cccc(C(C)(C)O)n1` + CN(C)c1ccc(Nc2c3ccc(NC(=O)CCN4CCCC4)cc3nc3cc(NC(=O)CCN4CCCC4)ccc23)cc1?
Answer: IC50 (second compound 0.0316 µM): 0.582 µM; IC50 (second compound 0.1 µM): 0.692 µM; IC50 (second compound 0.316 µM): 0.586 µM; IC50 (second compound 1 µM): 0.641 µM; IC50 (second compound 3.16 µM): 0.39 µM; IC50 (second compound 10 µM): < 0.0316 µM; viability, T/C [1]: 103%; viability, T/C [2]: 84.3%; viability, T/C [3]: 69.8%; viability, T/C [4]: 33.9%; viability, T/C [5]: 19.5%; viability, T/C [6]: 14.8%; viability, T/C [7]: 106%; viability, T/C [8]: 92.5%; viability, T/C [9]: 82.1%; viability, T/C [10]: 34.2%; viability, T/C [11]: 20.8%; viability, T/C [12]: 14.1%; viability, T/C [13]: 105%; viability, T/C [14]: 97%; viability, T/C [15]: 63.8%; viability, T/C [16]: 37.6%; viability, T/C [17]: 20.6%; viability, T/C [18]: 15.6%; viability, T/C [19]: 93.4%; viability, T/C [20]: 85%; viability, T/C [21]: 71%; viability, T/C [22]: 36.9%; viability, T/C [23]: 19.8%; viability, T/C [24]: 15.7%; viability, T/C [25]: 87.2%; viability, T/C [26]: 66.8%; viability, T/C [27]: 55.8%; viability, T/C [28]: 34.8%; viability, T/C [29]: 29.4%; viability, T/C [30]: 16.6%; viability, T/C [31]: 32.2%; viability, T/C [32]: 23.9%; viability, T/C [33]: 22.2%; viability, T/C [34]: 16.9%; viability, T/C [35]: 14.9%; viability, T/C [36]: 7.51%
